One experiment has as its target T1, rat liver AII receptors (Rattus norvegicus, UniProt P25095).
T1 construct: from tissue; host or cells: liver membranes (100,000 g pellet) of male Sprague-Dawley rats
T1 sequence (P25095 1-359): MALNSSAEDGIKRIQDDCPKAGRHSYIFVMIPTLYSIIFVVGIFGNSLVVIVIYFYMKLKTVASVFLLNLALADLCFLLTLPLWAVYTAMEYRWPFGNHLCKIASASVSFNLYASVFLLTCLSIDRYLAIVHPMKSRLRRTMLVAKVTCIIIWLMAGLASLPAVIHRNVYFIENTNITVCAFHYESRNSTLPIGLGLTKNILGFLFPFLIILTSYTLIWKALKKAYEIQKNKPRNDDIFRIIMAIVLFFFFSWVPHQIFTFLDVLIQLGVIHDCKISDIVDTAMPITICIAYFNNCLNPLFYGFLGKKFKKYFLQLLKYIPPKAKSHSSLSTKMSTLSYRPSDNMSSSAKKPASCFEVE
Kind of experiment: in vitro AII rat liver binding assay (displacement of 125I SARILE AII). To be noted: displacement of 125I SARILE AII from rat liver membranes; assay run with or without BSA; read-out: IC50 (concentration of compound which inhibits binding by 50%). On the procedure:
The compound of the present invention is readily adapted to clinical use as a modulator of AII action at the AII receptor. The ability of the compound to modulate AII action was determined by an in vitro AII rat liver binding assay which measures its ability to displace ^125 I sarcosine-1, isoleucine-8, angiotensin II (SARILE AII, obtained from New England Nuclear) from rat liver AII receptors. For this assay, the following materials are used.
Homogenation buffer (10 mM Tris, 0.2M sucrose, 1.0 mM EDTA), prepared using 1.21 g Tris base, […] sucrose and 336 mg EDTA in 1000 ml water, adjusted to pH 7.4 using HCl.
Buffer A (50 mM Tris, 5 mM MgCl2), prepared using 6.05 g Tris base and 1.02 g MgCl2.6H2 O in 1000 ml water.
Assay buffer, prepared using 200 ml Buffer A and 0.5 g BSA. […]
The compound being tested is made up to an initial concentration of 2 mM in 100% DMSO. […] The filters are cut, placed in test tubes and counted on a Gamma Counter. The mean for all triplicate points are calculated and total specific binding is calculated by subtracting nonspecific counts from total counts. Binding in the presence of compound (COUNTS) is calculated by subtracting nonspecific counts from counts in the presence of compound. Percent binding of SARILE All in the presence of compound is calculated by dividing COUNTS by total specific counts. […]
Background: Displacement assays read how much labelled ligand stays bound in the presence of the test substance.

Another experiment deals with mean arterial pressure. Description: in vivo blood pressure lowering in low sodium diet, furosemide-treated rats. Conditions: oral or parenteral dosing; sodium-depleted Sprague-Dawley rats. The protocol: The ability of the compounds of the invention to lower blood pressure in mammals was determined by the following in vivo protocol. Sprague-Dawley rats are placed on a low sodium diet (Purina Labs, 0.07% sodium) for 15 days. On days 11 and 13 of this period, the rats are given furosemide (Lasix, 8 mg/kg, i.m.). On day 13, the animals are anesthetized with a pentobarbital-chloral hydrate mixture (30 mg/kg pentobarbital sodium and 10 mg/kg chloral hydrate, i.p.) and the carotid artery and jugular vein are cannulated using PE50 tubing (Clay-Adams). After a 24 hour recovery period, the animals are injected on day 14 with Lasix (10 mg/kg, i.m.) and are placed in plexiglass chambers for blood pressure recording. […] When possible, blood pressure is also checked after 24 hours. According to this protocol, the compound of the invention is effective in lowering mean arterial pressure at oral dosages from about 0.1 mg/kg to about 30 mg/kg, and at parenteral dosages from about 0.01 mg/kg to about 10 mg/kg, with a duration of action of greater than 24 hours.

Structures are written as SMILES.

For `CCc1nc2c(C)cc(C)nc2n1Cc1ccc(C2(C(=O)O)CC=CC2)cc1` [Example 1, 1-[4'-(2"-ethyl-5",7"-dimethylimidazo[4,5-b]pyridin-3-yl)methylphenyl]cyclopent-3-ene-1-carboxylic acid], the IC50 at rat liver AII receptors was less than 100 nM. Besides, in the experiment with mean arterial pressure, the “duration of action (lowering of mean arterial pressure)” value is reported as “greater than 24 hours”.

These data come from patent publication US5300668A, “Certain esters of 1-(4-X-methylphenyl)cyclopent-3-ene-1-carboxylic acid, wherein X is a trialkylsilyloxy, bromo or hydroxy group, as intermediates” (Pfizer Inc., priority 1993, dated 1994).
